Values joined by “and” are separate entries in the source; they are usually repeats but may differ in a detail not shown here. Equal entries are not always repeated.
Legend:
[1] = molecular target: T1, human PI4KIII-beta 13-828 (D316-330) (Homo sapiens, UniProt Q9UBF8); experiment: PI4 KB Activity Assay (ADP-GLO Kinase assay); format: biochemical; conditions: 1 mM ATP, 60 μM phosphatidylinositol, 3 hours at room temperature; read-out: mean pIC50 (converted)
T1 construct: human PI4KIII-beta 13-828 (D316-330)
In short: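 Human PI4KIII-beta 13-828 (Δ316-330), 1.5 nM, with 1 mM ATP and 60 μM phosphatidylinositol in Hepes pH 7.5/MgCl2 buffer, 11-point titration (top 10 μM, 1% DMSO), 3 h at room temperature. ADP measured by ADP-Glo luminescence; IC50 by four-parameter fit against no-compound and no-enzyme controls.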

[2] = tested on: human rhinovirus Type A Strain 16 (HRVA16) in HeLa Ohio cells; experiment: Cytopathic Effect (CPE) Assay, ATP-depletion in infected HeLa Ohio cells; format: cell-based; conditions: HRVA16 at MOI of 1, 33° C. for 2 days, CellTiter-Glo
Description: c) Cytopathic Effect (CPE) Assay Protocol
The in vitro inhibition of PI4 KB activity was determined by analysis of the inhibition of ATP-depletion in HeLa Ohio cells in response to infection with human rhinovirus Type A Strain 16 (HRVA16). ATP levels were determined using CellTiter-GLO reagent from Promega. Compounds that inhibit PI4 KB are also potent inhibitors of human rhinoviruses and are able to protect HeLa Ohio cells from CPE induced by viral infection and replication. Protected cells remain viable following viral infection and therefore have greater ATP levels.
Compounds were dissolved in 100% DMSO to a concentration of 3 mM and subsequent dilutions were prepared in 100% DMSO using a 1:3 serial step dilution. A 0.5 μL stamp from an 10-point titration was transferred to a white 96 well Greiner tissue culture flat bottom plate (655083). A 0.5 μL stamp of 100% DMSO was stamped into columns 11 and 12 of the plate, ensuring a final assay DMSO concentration of 0.33% across the plate and a compound top final assay concentration of 10 μM.
HeLa Ohio cells were cultured at 37° C., 5% CO2 in media (DMEM supplemented with 10% Australian origin foetal bovine serum and 2 mM glutamax). Cells were passaged when confluency reached >80%. For the assay, cells were grown to 80-90% confluency before detachment.
Cells were detached for the assay by washing with PBS and detached using 3 mL TrypLE Express for […] at 37° C. Detached cells were mixed with 7 mL of media and centrifuged at 300 g for 5 min. The cell pellet was resuspended in 50 mL media and counted on a Beckman Coulter ViCell. Cells were diluted to 6.6×10^4 cells/mL and some of the cell volume was removed into a new tube to be used as a column 12 control. HRVA16 stock was added to the remaining cell suspension at the appropriate dilution for the virus stock to achieve an MOI of 1.
150 μL of the cell+virus suspension was added per well to columns 1-11 using a Multidrop Combi. 150 μL of the separate cell suspension was added per well to columns 12 using a multichannel pipette. Assay plates were sealed and incubated at 33° C., 5% CO2 for 2 days. After 2 days, assay plates were removed from the incubator and allowed to equilibrate to room temperature. 60 μL of CellTiter-Glo reagent was added to all wells using a Thermo Scientific Multidrop Combi. Plates were incubated at room temperature for 20 min before reading on an a Perkin Elmer Envision (Settings: Gripper height 2.5, Fixed measurement height (mm) 6.5, Distance between plate and detector 0, Measurement time (s) 0.1, Glow (ct2) correction factor (0%)).
The inhibitory effect of the compounds on the PI4 KB activity was evaluated by the IC50 of the response relative to the high (no virus, column 12) and low (virus+no inhibitor, column 11) controls by fitting to a four parameter dose response equation.

T1 sequence (Q9UBF8 1-801 isoform Q9UBF8-2): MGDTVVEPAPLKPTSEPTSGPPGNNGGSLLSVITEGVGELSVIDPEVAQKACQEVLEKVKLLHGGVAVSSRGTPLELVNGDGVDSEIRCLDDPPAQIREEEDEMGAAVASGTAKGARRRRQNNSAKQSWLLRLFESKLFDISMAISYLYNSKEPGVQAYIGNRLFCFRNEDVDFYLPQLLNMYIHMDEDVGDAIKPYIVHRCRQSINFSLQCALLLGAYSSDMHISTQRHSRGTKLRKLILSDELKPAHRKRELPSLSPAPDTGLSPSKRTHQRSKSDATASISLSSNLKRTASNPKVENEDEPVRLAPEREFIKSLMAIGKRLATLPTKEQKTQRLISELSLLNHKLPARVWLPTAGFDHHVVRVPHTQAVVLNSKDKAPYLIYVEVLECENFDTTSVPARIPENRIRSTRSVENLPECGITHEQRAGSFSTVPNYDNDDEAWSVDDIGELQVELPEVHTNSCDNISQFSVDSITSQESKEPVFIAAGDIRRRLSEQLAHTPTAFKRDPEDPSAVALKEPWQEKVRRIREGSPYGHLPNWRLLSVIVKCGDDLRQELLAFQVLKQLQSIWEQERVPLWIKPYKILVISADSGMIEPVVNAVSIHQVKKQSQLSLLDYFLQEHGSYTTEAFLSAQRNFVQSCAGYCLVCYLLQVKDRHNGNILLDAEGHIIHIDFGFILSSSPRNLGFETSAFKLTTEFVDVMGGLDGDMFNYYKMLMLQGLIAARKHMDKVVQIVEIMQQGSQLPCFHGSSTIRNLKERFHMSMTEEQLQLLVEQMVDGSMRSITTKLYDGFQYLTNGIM

Cc1ccc(-c2c(C)nn3c(NCc4cccc(-c5nccn5C)c4)cc(C(C)(C)O)nc23)cc1C(=O)N(C)CCCO [Compound 17, 5-(5-(2-Hydroxypropan-2-yl)-2-methyl-7-((3-(1-methyl-1H-imidazol-2-yl)benzyl)amino)pyrazolo[1,5-a]pyrimidin-3-yl)-N-(3-hydroxypropyl)-N,2-dimethylbenzamide]
IC50 [1]: 2.51 nM and ≤ 3.98 nM
mean pIC50 [2]: 8.9

CCN(CCO)C(=O)c1cc(-c2c(C)nn3c(NCc4cccc(-c5nccn5C)c4)cc(C(C)(C)O)nc23)ccc1OC [Compound 19, N-ethyl-N-(2-hydroxyethyl)-5-(5-(2-hydroxypropan-2-yl)-2-methyl-7-((3-(1-methyl-1H-imidazol-2-yl)benzyl)amino)pyrazolo[1,5-a]pyrimidin-3-yl)-2-methoxybenzamide]
IC50 [1]: 2.51 nM and ≤ 3.98 nM
mean pIC50 [2]: 8.9

COc1ccc(-c2c(C)nn3c(NCc4cccc(-c5nccn5C)c4)cc(C(C)(C)O)nc23)cc1C(=O)N(C)C1CCOCC1 [Compound 21, 5-(5-(2-Hydroxypropan-2-yl)-2-methyl-7-((3-(1-methyl-1H-imidazol-2-yl)benzyl)amino)pyrazolo[1,5-a]pyrimidin-3-yl)-2-methoxy-N-methyl-N-(tetrahydro-2H-pyran-4-yl)benzamide]
IC50 [1]: 6.31 nM
mean pIC50 [2]: 8.8

Cc1ccc(-c2c(C)nn3c(NCc4cccc(-c5nccn5C)c4)cc(C(C)(C)O)nc23)cc1C(=O)N(C)[C@@H](C)CO [Compound 22, (S)—N-(1-hydroxypropan-2-yl)-5-(5-(2-hydroxypropan-2-yl)-2-methyl-7-((3-(1-methyl-1H-imidazol-2-yl)benzyl)amino)pyrazolo[1,5-a]pyrimidin-3-yl)-N,2-dimethylbenzamide]
IC50 [1]: 3.16 nM and ≤ 3.98 nM
mean pIC50 [2]: at least 9.1

— patent US11649238B2, “Substituted pyrazolo[1,5-a]pyrimidines as PI4K inhibitors” (GLAXOSMITHKLINE INTELLECTUAL PROPERTY DEVELOPMENT LIMITED, priority 2018, dated 2023)
